In US20040156869A1, “2-substituted quinazolin-4-ylamine analogues” (Neurogen Corporation, priority 2002, published 2004):

Molecular target: human capsaicin receptor (VR1) (Homo sapiens, UniProt Q8NER1)
Experiment: Capsaicin receptor binding assay ([3H]RTX competition, VR1-transfected HEK293 membranes)

Sequence of human capsaicin receptor (VR1) (Q8NER1 whole entry): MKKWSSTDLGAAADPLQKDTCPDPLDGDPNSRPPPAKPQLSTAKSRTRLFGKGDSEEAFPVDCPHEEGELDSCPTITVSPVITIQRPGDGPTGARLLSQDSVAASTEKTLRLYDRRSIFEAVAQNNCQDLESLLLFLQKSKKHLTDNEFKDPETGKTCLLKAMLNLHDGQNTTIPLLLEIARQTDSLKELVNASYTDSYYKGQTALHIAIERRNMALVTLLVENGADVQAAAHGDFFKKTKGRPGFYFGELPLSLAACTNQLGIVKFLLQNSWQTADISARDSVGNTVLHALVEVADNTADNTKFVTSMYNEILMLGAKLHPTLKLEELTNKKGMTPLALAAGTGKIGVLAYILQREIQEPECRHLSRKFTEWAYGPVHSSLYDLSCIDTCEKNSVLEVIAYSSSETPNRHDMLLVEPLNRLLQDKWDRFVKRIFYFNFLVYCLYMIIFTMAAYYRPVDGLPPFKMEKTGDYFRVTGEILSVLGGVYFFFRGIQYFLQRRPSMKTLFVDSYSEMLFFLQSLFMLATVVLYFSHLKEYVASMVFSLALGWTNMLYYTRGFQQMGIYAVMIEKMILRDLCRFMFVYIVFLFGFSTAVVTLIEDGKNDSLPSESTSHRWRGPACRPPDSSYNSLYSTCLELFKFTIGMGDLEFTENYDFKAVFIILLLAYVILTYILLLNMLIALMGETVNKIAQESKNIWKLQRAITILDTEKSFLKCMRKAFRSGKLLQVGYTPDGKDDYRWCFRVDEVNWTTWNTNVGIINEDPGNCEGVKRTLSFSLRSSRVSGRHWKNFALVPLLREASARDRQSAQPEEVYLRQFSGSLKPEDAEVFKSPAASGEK

Row | Structure (SMILES) | Ki
1 | OCC1CCN(Cc2nc(Nc3ccc(C(F)(F)F)nc3)c3ccc(-c4ncccc4C(F)(F)F)cc3n2)CC1 [Compound 482, {1-[7-(3-Trifluoromethyl-pyridin-2-yl)-4-(6-trifluoromethyl-pyridin-3-ylamino)-quinazolin-2-ylmethyl]-piperidin-4-yl}-methanol] | < 1000 nM
2 | CCC(C)c1ccc(Nc2nc(COC)nc3nc(-c4ncccc4C(F)(F)F)ccc23)cc1 (stereo not shown) [Compound 93, (4-sec-Butyl-phenyl)-[2-methoxymethyl-7-(3-trifluoromethyl-pyridin-2-yl)-pyrido[2,3-d]pyrimidin-4-yl]-amine] | < 1000 nM
3 | CCCN(Cc1nc(Nc2ccc(C(F)(F)F)cc2)c2ccc(-c3ncccc3C(F)(F)F)cc2n1)CC1CC1 [Compound 551, [2-[(Cyclopropylmethyl-propyl-amino)-methyl]-7-(3-trifluoromethyl-pyridin-2-yl)-quinazolin-4-yl]-(4-trifluoromethyl-phenyl)-amine] | < 1000 nM
4 | CCOCc1nc(Nc2ccc(C(F)(F)F)nc2)c2ccc(-c3ncccc3Cl)nc2n1 [Compound 146, [7-(3-Chloro-pyridin-2-yl)-2-ethoxymethyl-pyrido[2,3-d]pyrimidin-4-yl]-(6-trifluoromethyl-pyridin-3-yl)-amine] | < 1000 nM
5 | CC(C)N(C)Cc1nc(Nc2ccc(S(=O)(=O)N3CCOCC3)cc2)c2ccc(-c3ncccc3C(F)(F)F)cc2n1 [Compound 723, [2-[(Isopropyl-methyl-amino)-methyl]-7-(3-trifluoromethyl-pyridin-2-yl)-quinazolin-4-yl]-[4-(morpholine-4-sulfonyl)-phenyl]-amine] | < 1000 nM
6 | COCc1nc(Nc2ccc(C(F)(F)F)c(C)c2)c2ccc(-c3ncccc3C(F)(F)F)nc2n1 [Compound 182, [2-Methoxymethyl-7-(3-trifluoromethyl-pyridin-2-yl)-pyrido[2,3-d]pyrimidin-4-yl]-(3-methyl-4-trifluoromethyl-phenyl)-amine] | < 1000 nM
7 | COCc1nc(Nc2ccc(S(=O)(=O)NC(C)(C)C)cc2)c2ccc(-c3ncccc3C(F)(F)F)cc2n1 [Compound 37, N-tert-Butyl-4-[2-methoxymethyl-7-(3-trifluoromethyl-pyridin-2-yl)-quinazolin-4-ylamino]-benzenesulfonamide] | < 1000 nM
8 | CC(C)[C@H](OCc1nc(Nc2ccc(C(C)(C)C)cc2)c2ccc(-c3ncccc3C(F)(F)F)cc2n1)C(=O)O [Compound 230, (S)-2-[4-(4-tert-Butyl-phenylamino)-7-(3-trifluoromethyl-pyridin-2-yl)-quinazolin-2-ylmethoxy]-3-methyl-butyric acid] | < 1000 nM
9 | CCOCc1nc(Nc2ccc(C3CCCC3)cc2)c2ccc(-c3ncccc3Cl)nc2n1 [Compound 137, [7-(3-Chloro-pyridin-2-yl)-2-ethoxymethyl-pyrido[2,3-d]pyrimidin-4-yl]-(4-cyclopentyl-phenyl)-amine] | < 1000 nM
10 | O=S(=O)(c1ccc(Nc2nc(COCC3CC3)nc3cc(-c4ncccc4C(F)(F)F)ccc23)cc1)N1CCOCC1 [Compound 142, [2-Cyclopropylmethoxymethyl-7-(3-trifluoromethyl-pyridin-2-yl)-quinazolin-4-yl]-[4-(morpholine-4-sulfonyl)-phenyl]-amine] | < 1000 nM
11 | C[C@@H]1CN(Cc2nc(Nc3ccc(C(F)(F)F)cc3)c3ncc(-c4ncccc4C(F)(F)F)cc3n2)C[C@@H](C)O1 [Compound 657, (R,R)-[2-(2,6-Dimethyl-morpholin-4-ylmethyl)-7-(3-trifluoromethyl-pyridin-2-yl)-pyrido[3,2-d]pyrimidin-4-yl]-(4-trifluoromethyl-phenyl)-amine] | < 1000 nM
12 | CCC1CCCCN1Cc1nc(Nc2ccc(C(F)(F)F)nc2)c2ccc(-c3ncccc3C(F)(F)F)cc2n1 (stereo not shown) [Compound 382, [2-(2-Ethyl-piperidin-1-ylmethyl)-7-(3-trifluoromethyl-pyridin-2-yl)-quinazolin-4-yl]-(6-trifluoromethyl-pyridin-3-yl)-amine] | < 1000 nM
13 | CC(=O)c1ccc(Nc2nc(CN3C[C@@H](C)O[C@H](C)C3)nc3cc(-c4ncccc4Cl)ccc23)cc1 [Compound 623, (R,R)-1-{4-[7-(3-Chloro-pyridin-2-yl)-2-(2,6-dimethyl-morpholin-4-ylmethyl)-quinazolin-4-ylamino]-phenyl}-ethanone] | < 1000 nM
14 | COCc1cc2nc(-c3ncccc3C(F)(F)F)ccc2c(Nc2ccc(C(F)(F)F)cc2)n1 [Compound 295, [7-Methoxymethyl-2-(3-trifluoromethyl-pyridin-2-yl)-[1,6]naphthyridin-5-yl]-(4-trifluoromethyl-phenyl)-amine] | < 1000 nM
15 | CC(C)COCc1nc(Nc2ccc(S(C)(=O)=O)cc2)c2ccc(-c3ncccc3C(F)(F)F)nc2n1 [Compound 214, [2-Isobutoxymethyl-7-(3-trifluoromethyl-pyridin-2-yl)-pyrido[2,3-d]pyrimidin-4-yl]-(4-methanesulfonyl-phenyl)-amine] | < 1000 nM
16 | CCC1CCCCN1Cc1cc(Nc2ccc(C(F)(F)F)cc2)c2ccc(-c3ncccc3C(F)(F)F)nc2n1 (stereo not shown) [Compound 812, [2-(2-Ethyl-piperidin-1-ylmethyl)-7-(3-trifluoromethyl-pyridin-2-yl)-[1,8]naphthyridin-4-yl]-(4-trifluoromethyl-phenyl)-amine] | < 1000 nM

Row | Structure (SMILES) | Ki
17 | CCCN(CCC)Cc1nc(Nc2ccc(C(F)(F)F)cc2)c2ccc(-c3ncccc3C(F)(F)F)cc2n1 [Compound 550, [2-Dipropylaminomethyl-7-(3-trifluoromethyl-pyridin-2-yl)-quinazolin-4-yl]-(4-trifluoromethyl-phenyl)-amine] | < 1000 nM
18 | CCN(CC)CCCOCc1nc(Nc2ccc(C(C)(C)C)cc2)c2ccc(-c3ncccc3C(F)(F)F)cc2n1 [Compound 117, (4-tert-Butyl-phenyl)-[2-(3-diethylamino-propoxymethyl)-7-(3-trifluoromethyl-pyridin-2-yl)-quinazolin-4-yl]-amine] | < 1000 nM
19 | FC(F)(F)c1ccc(Nc2nc(COCc3cccnc3)nc3cc(-c4ncccc4C(F)(F)F)ccc23)cn1 [Compound 45, [2-(Pyridin-3-ylmethoxymethyl)-7-(3-trifluoromethyl-pyridin-2-yl)-quinazolin-4-yl]-(6-trifluoromethyl-pyridin-3-yl)-amine] | < 1000 nM
20 | CCc1ccc(Nc2nc(CN3C[C@@H](C)O[C@H](C)C3)nc3cc(-c4ncccc4Cl)ccc23)cc1 [Compound 626, (R,R)-(4-Ethyl-phenyl)-[7-(3-chloro-pyridin-2-yl)-2-(2,6-dimethyl-morpholin-4-ylmethyl)-quinazolin-4-yl]-amine] | < 1000 nM
21 | FC(F)(F)c1ccc(Nc2nc(CN3CCOCC3)nc3cc(-c4ncccc4C(F)(F)F)cnc23)cn1 [Compound 542, [2-Morpholin-4-ylmethyl-7-(3-trifluoromethyl-pyridin-2-yl)-pyrido[3,2-d]pyrimidin-4-yl]-(6-trifluoromethyl-pyridin-3-yl)-amine] | < 1000 nM
22 | O=C(NCCCN1CCOCC1)c1nc(Nc2ccc(C(F)(F)F)cc2)c2ccc(-c3ncccc3C(F)(F)F)nc2n1 [Compound 443, 4-(4-Trifluoromethyl-phenylamino)-7-(3-trifluoromethyl-pyridin-2-yl)-pyrido[2,3-d]pyrimidine-2-carboxylic acid (3-morpholin-4-yl-propyl)-amide] | < 1000 nM
23 | CC(c1ccccc1)N(C)CCc1nc(Nc2ccc(C(F)(F)F)cc2)c2ccc(-c3ncccc3C(F)(F)F)cc2n1 (stereo not shown) [Compound 388, [2-{2-[Methyl-(1-phenyl-ethyl)-amino]-ethyl}-7-(3-trifluoromethyl-pyridin-2-yl)-quinazolin-4-yl]-(4-trifluoromethyl-phenyl)-amine] | < 1000 nM
24 | CCOC(=O)c1nc(Nc2ccc(C(C)(C)C)cc2)c2ccc(-c3ncccc3C(F)(F)F)nc2n1 [Compound 219, 4-(4-tert-Butyl-phenylamino)-7-(3-trifluoromethyl-pyridin-2-yl)-pyrido[2,3-d]pyrimidine-2-carboxylic acid ethyl ester] | < 1000 nM
25 | COCc1nc(Nc2ccc(C(C)C)cc2)c2ccc(-c3ncccc3C)cc2n1 [Compound 78, (4-Isopropyl-phenyl)-[2-methoxymethyl-7-(3-methyl-pyridin-2-yl)-quinazolin-4yl]-amine] | < 1000 nM
26 | COCc1nc(Nc2ccc(S(=O)(=O)N3CCOCC3)cc2)c2ncc(-c3ncccc3Cl)cc2n1 [Compound 120, [7-(3-Chloro-pyridin-2-yl)-2-methoxymethyl-pyrido[3,2-d]pyrimidin-4-yl]-[4-(morpholine-4-sulfonyl)-phenyl]-amine] | < 1000 nM
27 | OCc1cc(Nc2ccc(C(F)(F)F)cc2)c2ccc(-c3ncccc3C(F)(F)F)nc2n1 [Compound 300, [4-(4-Trifluoromethyl-phenylamino)-7-(3-trifluoromethyl-pyridin-2-yl)-[1,8]naphthyridin-2-yl]-methanol] | < 1000 nM
28 | CN(Cc1nc(Nc2ccc(C(F)(F)F)nc2)c2ccc(-c3ncccc3C(F)(F)F)cc2n1)C1CCc2ccccc21 (stereo not shown) [Compound 349, [2-[(Indan-1-yl-methyl-amino)-methyl]-7-(3-trifluoromethyl-pyridin-2-yl)-quinazolin-4-yl]-(6-trifluoromethyl-pyridin-3-yl)-amine] | < 1000 nM
29 | CC1(C)CN(Cc2nc(Nc3ccc(C(F)(F)F)cc3)c3ccc(-c4ncccc4C(F)(F)F)cc3n2)CCO1 [Compound 739, [2-(2,2-Dimethyl-morpholin-4-ylmethyl)-7-(3-trifluoromethyl-pyridin-2-yl)-quinazolin-4-yl]-(4-trifluoromethyl-phenyl)-amine] | < 1000 nM
30 | COCc1cc(Nc2ccc(C(F)(F)F)cc2)c2ccc(-c3ncccc3C(F)(F)F)nc2n1 [Compound 297, [2-Methoxymethyl-7-(3-trifluoromethyl-pyridin-2-yl)-[1,8]naphthyridin-4-yl]-(4-trifluoromethyl-phenyl)-amine] | < 1000 nM
31 | CC(C)N1CCN(C(=O)c2nc(Nc3ccc(C(F)(F)F)cc3)c3ccc(-c4ncccc4C(F)(F)F)nc3n2)CC1 [Compound 471, (4-Isopropyl-piperazin-1-yl)-[4-(4-trifluoromethyl-phenylamino)-7-(3-trifluoromethyl-pyridin-2-yl)-pyrido[2,3-d]pyrimidin-2-yl]-methanone] | < 1000 nM
